Laboratory results as given in patent publication US12473537B2, “Three-dimensional cell culture, devices, and use thereof” (THE BROAD INSTITUTE, INC., priority 2020, dated 2025).

Columns and labels:
Type in all cases: cell-based, human
Notch signaling [1] = assay: Notch inhibition in pancreatic progenitor cells in Disque platform (DP), qRT-PCR gene expression; details: 10 μM, 4 days, cells cultured in DP
Excerpt: (§1) Next, Applicant further examined whether other junction signaling pathways critical for β-cell differentiation, such as the Notch signaling pathway, could be supported in the DP, as Notch inhibition in pancreatic progenitor cells is known to promote differentiation into the endocrine lineage and β-cell production. To measure this in the DP, Applicant supplemented the differentiation protocol of pancreatic progenitor cells with Notch inhibitor (NI) [γ-secretase inhibitor, N—[N-(3,5-Difluorophenacetyl)-L-alanyl]-S-phenylglycine t-butyl ester (DAPT) (10 μM)] and examined the cells at the end of pancreatic progenitor cells (stage 4 day 5 (S4d5)) by immunocytochemistry and gene expression analysis (FIGS. 8A-8D). […]
(§2) Compound treatment. […] For the dose-cytotoxicity study, cell viability was measured by AlamarBlue™ assay following the manufacturer's protocol (Invitrogen, Carlsbad, CA, USA).
(§3) Gene Expression Analysis. […] The RNA concentration was determined by measuring absorbance at 260 nm using a spectrophotometer. […] The profiles of gene expression in SC β-cells were quantified for each target (human E-cad, CX-36, ZnT8, Pdx-1, Nkx6.1, Insulin, and glyceraldehyde 3-phosphate dehydrogenase (GAPDH), QuantiTect primary assay). The expression level of target genes was determined by the comparative Ct method, whereby the target is normalized to the endogenous reference (GAPDH) 40. […]

Notch signaling [2] = assay: Notch inhibition in 2D culture, Hes1 gene expression; details: 10 μM
Excerpt: as §1, §2, §3

[3] = test system: pancreatic progenitor cells; assay: Notch inhibition in DP, immunocytochemical staining for Pdx-1 and Nkx6.1; details: 10 μM, S4d5
Excerpt: Next, Applicant further examined whether other junction signaling pathways critical for β-cell differentiation, such as the Notch signaling pathway, could be supported in the DP, as Notch inhibition in pancreatic progenitor cells is known to promote differentiation into the endocrine lineage and β-cell production. To measure this in the DP, Applicant supplemented the differentiation protocol of pancreatic progenitor cells with Notch inhibitor (NI) [γ-secretase inhibitor, N—[N-(3,5-Difluorophenacetyl)-L-alanyl]-S-phenylglycine t-butyl ester (DAPT) (10 μM)] and examined the cells at the end of pancreatic progenitor cells (stage 4 day 5 (S4d5)) by immunocytochemistry and gene expression analysis (FIGS. 8A-8D). […] Upon establishing the differentiation capabilities of the DP, Applicant then reasoned whether differentiated SC β cells also elicited proper insulin secretion functionality. The DP also supported insulin secretion from SC β cells in response to glucose stimulation, and similar secretion indices were noted between DP and SF (FIG. 3J).
Compound treatment. Cells were seeded into the DP and incubated with their respective media as outlined in the section above and allowed to settle for 24 hours (day 1). […] For the dose-cytotoxicity study, cell viability was measured by AlamarBlue™ assay following the manufacturer's protocol (Invitrogen, Carlsbad, CA, USA). […]

SC β cells [4] = assay: Proliferation of SC β cells in DP (EdU or Ki67, flow cytometry)
Procedure: Applicant then compared ZnPD6 and harmine over the range of 0.625 to 20 μM based on the percentage of proliferating mature SC β cells using the c-peptide/EdU co-positive metric, wherein EdU is a proliferation marker that identifies cells undergoing DNA replication in the S phase (FIG. 5D). […] Despite releasing the same drug following ZnPD cleavage, Applicant were interested in determining what caused the difference in cytotoxicity and proliferation between ZnPD6 and unmodified harmine. Applicant then examined harmine and ZnPD6 at their optimal concentrations for proliferation, 10 μM and 20 μM, respectively.
Compound treatment. Cells were seeded into the DP and incubated with their respective media as outlined in the section above and allowed to settle for 24 hours (day 1). For compound treatment (ZnPDs and small molecule cargos), the media were replaced with new media supplemented with prodrug at different concentrations on day 3 and day 6 for a total treatment of 6 days. Cell analyses was performed after 7 days in culture. For targeting study with ZnPD4, cells were treated with ZnPD4 for 2 hours. […] For the dose-cytotoxicity study, cell viability was measured by AlamarBlue™ assay following the manufacturer's protocol (Invitrogen, Carlsbad, CA, USA).
Flow cytometry. […] Cells were analyzed using a BD FACSAria™ II flow cytometer (BD Biosciences, Franklin Lakes, NJ, USA). […]

DYRKIA = assay: NFAT1 nuclear translocation as readout for DYRKIA inhibition
Procedure: Immunocytochemical staining. The Immunofluorescent staining was performed as previously described in the Flow cytometry section. The additional primary antibodies for immunocytochemical staining were used: rabbit polyclonal anti-NFAT1 (1:500, ab244310, Abcam, Cambridge, MA, USA), mouse monoclonal anti-E-cadherin (1:500, Abcam) and rabbit polyclonal anti-connexin 36 (1:500, Abcam). Secondary antibodies were stained using previously described antibodies noted within the flow cytometry method. Cells were then counter-stained with 4′, 6-Diamidino-2-phenylindole (DAPI, MilliporeSigma, Burlington, MA, USA) or 2,5′-Bi-1H-benzimidazole (Hoechst, Invitrogen). HTS imaging was performed using the Opera Phenix™ High Content Screening System (PerkinElmer, Waltham, MA, USA). Fluorescent and bright-field imaging were performed using the Eclipse TE2000-U (Nikon, Tokyo, Japan). Confocal imaging and z-stack 3D reconstruction were performed using LSM 800 with Airyscan (Zeiss, Oberkochen, Germany). Analysis was performed using ImageJ (NIH) and Adobe Photoshop (Adobe, San Jose, CA, USA) software.

SC β cells [5] = assay: Dose-cytotoxicity study, AlamarBlue assay; details: 0.032~500 μM
Procedure: Compound treatment. […] For compound treatment (ZnPDs and small molecule cargos), the media were replaced with new media supplemented with prodrug at different concentrations on day 3 and day 6 for a total treatment of 6 days. Cell analyses was performed after 7 days in culture. […] For the dose-cytotoxicity study, cell viability was measured by AlamarBlue™ assay following the manufacturer's protocol (Invitrogen, Carlsbad, CA, USA).
Cell viability test. To determine the viability of SC β-cells in the DP and SF, a Live/Dead Viability and Cytotoxicity Assay Kit (AlamarBlue™, Invitrogen) were used according to the manufacturer's instructions.

Row | SMILES | increase in Pdx-1 expression (Notch signaling [1]; S4d5, vs control) [%] | decrease in hairy and enhancer of split-1 (Hes1) expression (Notch signaling [1]; vs control) [%] | Hes1 expression response to Notch inhibition (Notch signaling [2]) | Pdx-1-positive progenitor cells after Notch inhibition [3] | population of proliferating monohormonal SC β cells (C-peptide+GCG-EdU+) (SC β cells [4]; DP, flow cytometry, compared to DMSO control or negative control) | optimal concentration for proliferation (SC β cells [4]; SC β cells in DP) [µM] | NFAT1 nuclear translocation over time, in words (DYRKIA; FIG. 5H) | NFAT1 nuclear translocation (DYRKIA; at 24 hours) [%] | NFAT1 nuclear translocation (DYRKIA; value before the decrease) [%] | concentration above which a cytotoxic effect is seen (SC β cells [5])
1 | C[C@H](NC(=O)Cc1cc(F)cc(F)c1)C(=O)N[C@H](C(=O)OC(C)(C)C)c1ccccc1 [DAPT, N—[N-(3,5-Difluorophenacetyl)-L-alanyl]-S-phenylglycine t-butyl ester] | 80 | 71 | not responsive | significantly increased | – | – | – | – | – | –
2 | COc1ccc2c(c1)[nH]c1c(C)nccc12 [harmine] | – | – | – | – | statistically significant increase | 10 | decreased NFAT1 nuclear translocation after 4 hours | 15 | 26 | over 10 μM
